According to patent publication US20250250227A1, “AMINO LIPID COMPOUND, PREPARATION METHOD THEREFOR, COMPOSITION THEREOF AND USE THEREOF” (SHENZHEN SHENXIN BIOTECHNOLOGY CO., LTD., priority 2022, published 2025):

Columns and labels:
Female BALB/c mice [1] = experiment: Performance evaluation of delivery to lymph nodes of Fluc mRNA lipid nanoparticle (IVIS); assay type: in vivo; settings: Fluc mRNA LNP; for Expression intensity (lymph nodes): 75 μL IV, 6 hours after injection, IVIS
Method: (§1) Animal preparation: Female BALB/c mice of 6-8 weeks old were selected and raised in an SPF grade breeding room. Animal testing was conducted in strict accordance with the guidelines of national health institutions and animal ethics requirements.
In vivo Delivery: prior to injection of the test LNP formulations, the LNP formulations were gently and repeatedly inverted to thoroughly mix the formulation samples. A corresponding amount of the formulation samples were aspirated with a 1 ml insulin syringe, and the LNP formulations were injected by tail vein injection (IV), with 3 mice per formulation. Each mouse was injected with 75 μL the luciferase mRNA (Fluc mRNA)-encapsulating lipid nanoparticle formulation prepared in Experimental Example 1.
6 hours after injection of LNP formulations, mice were injected with 200 μL D-Luciferin luciferase developing substrate (Catalog No. 122799; Manufacturer: Perkin Elmer). After the substrate was injected, the mice were anesthetized with isoflurane inhalation, and the injection time of luciferase developing substrate was recorded.
The intensity of fluorescence expression induced by the lipid nanoparticle encapsulating luciferase mRNA (Fluc mRNA) with a representative amino lipid compound is shown in Table 6, with SM-102 as a control.

Female BALB/c mice [2] = experiment: In vivo safety of hEPO mRNA lipid nanoparticle: serum alanine aminotransferase (ALT) enzyme activity; settings: hEPO mRNA LNP, 300 μL IV, serum 12 h after injection; FIG. 1
Method: A human erythropoietin mRNA (hEPO mRNA)-encapsulating lipid nanoparticle formulation was prepared according to the method as described in Experimental Example 1, with replacing the luciferase mRNA (Fluc mRNA) with human erythropoietin mRNA (hEPO mRNA), with a concentration of hEPO mRNA of 0.2 g/L, a mass ratio of hEPO mRNA to Lipid of 1:10, a particle size of 90-130 nm, and an encapsulation efficiency of above 90% or higher.
as §1
In vivo Delivery: Prior to injection of the test LNP formulations, the LNP formulations were gently and repeatedly inverted to thoroughly mix the formulation samples. A corresponding amount of the formulation samples were aspirated with a 1 ml insulin syringe, and the LNP formulations were injected by tail vein injection (IV), with 5 mice per formulation. Each mouse was injected with 300 μL of the human erythropoietin mRNA (hEPO mRNA)-encapsulating lipid nanoparticle formulation.
Serum acquisition: Blood samples of mice were collected 12 h after injection, placed in tubes without anticoagulants, and naturally coagulated at room temperature for 30-60 min, and then centrifuged at a speed of 3500 rpm for 10 min to obtain the supernatant, which was the serum.
The detection of alanine transaminase was carried out according to instructions of the kit (Nanjing Jiancheng Bioengineering Institute, Catalog. No. C009-2-1), and a standard curve was made using the standard provided in the kit. D-PBS was used in the experiment, which was purchased from Sangon Biotech (Shanghai) Co., Ltd., Catalog No. E607009-0600.
The method of detection of enzyme activity of alanine aminotransferase (ALT) in serum of the mice is as follows:
• (1) Enzymatic reaction: 0, 2, 4, 6, 8 and 10 μL of […] sodium pyruvate standard solution were sequentially added to 5 μL of 0.1 mol/L phosphate buffer, and the volume was supplemented to 25 μL with a matrix solution, and repeatedly aspirating and spitting with a pipette for mixing well; • (2) Addition reaction: 20 μL 2,4-dinitrophenylhydrazine solution was added to all reaction wells in (1), mixed by aspirating and spitting, and then placed in an incubator at 37° C. to react for 20 min; • (3) Developing: 200 μL of 0.4 mol/L NaOH solution was added to all reaction wells in (2) to stop the reaction, mixed by aspirating and spitting, and incubated at room temperature for 15 min. The OD value of each well was measured at 510 nm in a microplate reader; and • (4) Data processing of standard curve: The corresponding absolute OD value for each well was obtained by subtracting the OD value for 0 μL well from the measured OD value for each well, the corresponding ALT Karmen units being 0, 28, 57, 97, 150 and 200 U/L, respectively. The standard curve was obtain by taking the absolute OD value as the abscissa and the corresponding Karmen unit as the ordinate.
• (1) Reagent preparation: an ALT matrix solution was placed in an incubator at 37° C. for preheating; • (2) Enzymatic reaction: 5 μL diluted serum was aspirated and added to a 96-well plate, then 20 μL matrix solution was added to the corresponding sample well and mixed by repeatedly aspirating and spitting to avoid bubbling, and then placed in an incubator at 37° C. for 30 min; • (3) Addition reaction: 20 μL 2,4-dinitrophenylhydrazine was added to all reaction wells in (2), mixed by aspirating and spitting, and then reacted in an incubator at 37° C. for 20 min; • (4) Developing: 200 μL of 0.4 mol/L NaOH solution was added to all reaction wells in (3) to stop the reaction, mixed by aspirating and spitting, and then incubated at room temperature for 15 min. […]

Female BALB/c mice [3] = experiment: Humoral immunity test for total binding IgG antibody (ELISA, SARS-COV-2 antigen protein) in serum of immunized mice; assay type: in vivo; settings: IN002.5.1 mRNA LNP, 50 μL IM, serum on 14th day after immunization; FIG. 5-6
Female BALB/c mice [4] = experiment: Performance evaluation of in vivo delivery of Fluc mRNA lipid nanoparticle (IVIS, body and organs); settings: Fluc mRNA LNP; for Liver (fluorescence expression intensity) / Spleen (fluorescence expression intensity): 75 μL IV; for Liver (fluorescence expression intensity) / Spleen (fluorescence expression intensity) / Total flux (fluorescence expression intensity) / (Spleen/Total Flux) * 100%: 6 hours after injection; for Liver (fluorescence expression intensity) / Spleen (fluorescence expression intensity) / Total flux (fluorescence expression intensity): IVIS; for Total flux (fluorescence expression intensity): 75 μL tail vein injection (IV); for (Spleen/Total Flux) * 100% / Multiple of spleen delivery/total delivery to amino lipid compound 118: IV; for Multiple of spleen delivery/total delivery to amino lipid compound 118: relative to amino lipid compound 118
Method in brief: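 Female BALB/c mice, 6-8 weeks, received 75 μL Fluc mRNA-LNP by tail-vein injection, 3 mice per formulation. At 6 h, 200 μL D-luciferin was injected, mice were anesthetized with isoflurane, and IVIS bioluminescence was imaged in body and organs.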

[5] = Preparation and characterisation of mRNA-encapsulating lipid nanoparticle (encapsulation efficiency, particle size); assay type: physicochemical; settings: LNP encapsulating Fluc mRNA; Lipid:DSPC:CHO-HP:M-DMG-2000 48:10:40.5:1.5
Method in brief: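 Fluc mRNA in sodium acetate buffer mixed with ethanolic amino lipid:DSPC:CHO-HP:M-DMG-2000 (48:10:40.5:1.5 molar) by microfluidics, mRNA:lipid mass ratio 1:10, then dialysed 2 h against Tris-8% sucrose and 0.22 μm filtered. Final mRNA 0.2 g/L; particle size and encapsulation efficiency measured.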

Female BALB/c mice [6] = experiment: IFN-γ Elispot cellular immunity test, spleen lymphocytes of mice immunized with IN002.5.1 mRNA LNP; assay type: in vivo; settings: 50 μL IM, spleen on 7th day after immunization, FIG. 2-4
Method: An IN002.5.1 mRNA-encapsulating lipid nanoparticle formulation was prepared according to the method as described in Experimental Example 1, with replacing the luciferase mRNA (Fluc mRNA) with IN002.5.1 mRNA, with a concentration of IN002.5.1 mRNA of 0.2 g/L, a mass ratio of IN002.5.1 mRNA to Lipid of 1:10, a particle size of 80-130 nm, and an encapsulation efficiency of 90% or higher.
The sequence of IN002.5.1 mRNA is one obtained by replacing all uracil (u) in SEQ ID NO. 1 with N1-methylpseudouridine. Of note is that the t (thymine) in the RNA sequence, SEQ ID NO. 1, in the Sequence Listing is actually u (uracil), according to the WIPO Standard ST. 26 for nucleotide or amino acid sequence listing.
as §1
Immunization of mice: Prior to injection of the test LNP formulations, the LNP formulations were gently and repeatedly inverted to thoroughly mix the formulation samples. A corresponding amount of the formulation samples were aspirated with a 1 ml insulin syringe, and the LNP formulations were injected by intramuscular injection (IM) […], with 8 mice per formulation. Each mouse was injected with 50 μL of the IN002.5.1 mRNA encapsulating lipid nanoparticle formulation.
Spleen acquisition: On the 7th day after immunization, 3 to 4 mice from each LNP immunization group were selected and euthanized, and their spleens were acquired in a super clean bench.
Isolation of lymphocytes: The spleens of mice were taken out in a super clean bench. 7 mL of mouse lymphocyte separation solution was added to a 6-well cell culture plate. Mouse spleen cells were ground with a syringe piston, and the suspension of the spleen cells was filtered through a cell screen and immediately transferred to a 15 mL centrifuge tube. […] RPMI 1640 medium was slowly added with keeping the liquid interface distinct. After centrifugation at 800 g with a horizontal rotor at room temperature for 30 minutes, a clear stratification can be visible. The lymphocyte layer was aspirated, then added with 10 mL RPMI 1640 medium, and inverted for washing. The cells were collected by centrifugation at 250 g for 10 min at room temperature, and the red blood cells were lysed. After completing lysis of red blood cells, the supernatant was poured, and the cells were resuspended in culture medium and counted.
Addition of stimulant and culture of lymphocyte: RPMI-1640 medium containing 10% fetal bovine serum was used to activate the pre-coated plate. After standing at room temperature for at least 30 min, the medium was removed, and a cell suspension at adjusted concentration was added ([…]). The medium used to resuspend the cells was used as a background negative control. 10 μL positive stimulant working solution (PMA+Ionomycin (dissolved in DPBS) was added to a positive control well; […] medium used to resuspend the cells was added to a negative control well; 10 µL/well of a peptide library diluted with RPMI 1640 was added to experimental wells. After all samples and the stimulant were added, the plate was covered, incubated in an incubator with 5% CO2 at 37° C. for 16-24 h.
Elispot detection after culture: The cells and the culture medium in the wells were dumped, and the wells were lysed with 200 μL/well of ice-cold deionized water at 4° C. for 10 min. The liquid in the wells were shaken out, and the wells were washed five times with PBS buffer. The wells were incubated with 100 μL/well of 1 μg/ml detection antibody for 2 h at room temperature; and after washing the plate 5 times with PBS, the wells were incubated with 100 μL/well of 1000-fold diluted enzyme labeled avidin (Streptavidin-HRP) for 1 h at room temperature. […]

| Compound | Expression intensity (lymph nodes) (Female BALB/c mice [1]) | ALT enzyme activity (Karmen unit) compared to ALC0315 and SM-102 (Female BALB/c mice [2]) | Humoral immunity effect (IgG titer) compared to ALC0315 (Female BALB/c mice [3]) | Liver (fluorescence expression intensity) (Female BALB/c mice [4]) | Spleen (fluorescence expression intensity) (Female BALB/c mice [4]) | Total flux (fluorescence expression intensity) (Female BALB/c mice [4]) | (Spleen/Total Flux) * 100% (Female BALB/c mice [4]) [%] | Multiple of spleen delivery/total delivery to amino lipid compound 118 (Female BALB/c mice [4]) | Encapsulation efficiency [5] [%] | Delivery effect on lymph nodes compared to SM102 (Female BALB/c mice [1]; IV, statement on Table 6) | Cellular immunity effect (IFN-γ Elispot) compared to ALC0315 (Female BALB/c mice [6]) |
| --- | --- | --- | --- | --- | --- | --- | --- | --- | --- | --- | --- |
| CCCCCCCCCCCOC(=O)CCCCCN(CCO)CCCCCCCC(=O)OC(CCCCCCCC)CCCCCCCC [SM-102, reference compound] | 4.94E+05 |  |  |  |  |  |  |  |  |  |  |
| CCCCCCOC(=O)CCN(CCCN(C)C)C(=O)OC(CCCCCCCCC(=O)OC(CCCCCC)CCCCCC)CCCCCCCCC(=O)OC(CCCCCC)CCCCCC [Compound 266] |  | significantly lower ALT enzyme activity | better humoral immunity effect | 8.09E+07 | 1.60E+06 | 2.67E+08 | 0.60 | 1.76 | 94.26 |  |  |
| CCCCCCC(CCCCCC)OC(=O)CCCCCCCCC(CCCCCCCCC(=O)OC(CCCCCC)CCCCCC)OC(=O)N(CCCCCC(=O)OCC)CCCN(C)C [Compound 250] | 1.77E+06 |  |  |  |  |  |  |  |  | better delivery effect on lymph nodes |  |
| CCCCCCC(CCCCCC)OC(=O)CCCCCCCCC(CCCCCCCCC(=O)OC(CCCCCC)CCCCCC)OC(=O)N(CCCN(C)C)CC(=O)OCCCCC [Compound 271] |  |  | better humoral immunity effect | 7.57E+07 | 4.76E+06 | 2.68E+08 | 1.78 | 5.22 | 93.59 |  | better cellular immunity effect |
| CCCCCCC(CCCCCC)OC(=O)CCCCCCCCC(CCCCCCCCC(=O)OC(CCCCCC)CCCCCC)OC(=O)N(CCCN(C)C)CCC(=O)OCCCCC [Compound 265] |  |  | better humoral immunity effect | 7.57E+07 | 1.91E+06 | 3.93E+08 | 0.49 | 1.43 | 94.59 |  | better cellular immunity effect |
| CCCCCCCCOC(=O)CN(CCCN(C)C)C(=O)OC(CCCCCCCCC(=O)OC(CCCCCC)CCCCCC)CCCCCCCCC(=O)OC(CCCCCC)CCCCCC [Compound 274] |  |  | better humoral immunity effect | 7.08E+07 | 2.60E+06 | 3.25E+08 | 0.80 | 2.35 | 93.06 |  | better cellular immunity effect |
| CCCCCCC(CCCCCC)OC(=O)CCCCCCCCC(CCCCCCCCC(=O)OC(CCCCCC)CCCCCC)OC(=O)N(CCCN(C)C)CCC(=O)OCCC [Compound 263] |  | significantly lower ALT enzyme activity | better humoral immunity effect |  |  |  |  |  |  |  | better cellular immunity effect |
